Reference: US9982138B2, “Hair color compositions comprising stable violet-blue to blue imidazolium dyes” (Noxell Corporation, priority 2016, dated 2018)
Structures can show the parent of a compound that is named as a salt.

Legend:
Type in all cases: physicochemical
[1] = In-use disappearance of the dye in ammonia buffer with hydrogen peroxide (UV/visible absorbance); conditions: % loss recorded at 30 minutes in the presence of a 3% peroxide solution at pH 10.58
Experimental: Disappearance of the dye is measured on a Cary 100 UV/visible spectrophotometer. A solution of the dye in 50% aqueous ethanol at a concentration sufficient to give an absorbance of 2.0 at the dye's λmax and buffered at pH 10.6 with ammonia is mixed with an equal volume of 6% hydrogen peroxide in a 1 cm quartz cuvette. […]

[2] = Storage stability: disappearance of the dye on storage at pH 10, 25° C. (UV/visible absorbance); conditions: % loss on 1-month storage at pH 10, 25° C.
Experimental: Disappearance of the dye is measured on a Cary 100 UV/visible spectrophotometer using a 1 cm cuvette. A solution of the dye is prepared at a concentration sufficient to give an absorbance of 0.9-1.1 at the dye's λmax when buffered at pH 10.0. The absorbance is measured after storage at 25° C. Percent disappearance is calculated as the difference between the starting absorbance (A0) and the absorbance (At) at a specific storage period divided by the starting absorbance minus the baseline absorbance (Ab), by the following equation: […]

[3] = Color (λmax) by UV/visible spectrophotometer

| SMILES | % Disappearance (In-use) [1] | % Disappearance (Storage) [2] | Color (λmax; nm) [3] |
| --- | --- | --- | --- |
| CCCCCN1CCN(CCCCC)c2cc(/N=N/c3n(CCCCN)cc[n+]3CCCCN)ccc21.Cl.Cl.[Br-] [Compound 4, (E)-1,3-bis(4-ammoniobutyl)-2-((1,4-dipentyl-1,2,3,4-tetrahydroquinoxalin-6-yl)diazenyl)-1H-imidazol-3-ium bromide dichloride] | 1.85% | 3.86% | 599 nm |
| CN1CCNc2cc(/N=N/c3n(CCCN)cc[n+]3CCCN)ccc21.Cl.Cl.[Br-] [Compound 3, (E)-1,3-bis(3-ammoniopropyl)-2-((1-methyl-1,2,3,4-tetrahydroquinoxalin-6-yl)diazenyl)-1H-imidazol-3-ium bromide dichloride] | 1.91% | 4.55% | 580 nm |
| CCN1CCN(CC)c2cc(/N=N/c3n(CCC[N+](C)(C)C)cc[n+]3CCC[N+](C)(C)C)ccc21 [Compound 2, (E)-2-((1,4-diethyl-1,2,3,4-tetrahydroquinoxalin-6-yl)diazenyl)-1,3-bis(3-(trimethyl-ammonio)propyl)-1H-imidazol-3-ium tribromide] | 0% | 0.71% | 580 nm |
| CCCCCN1CCNc2cc(/N=N/c3n(CCCN)cc[n+]3CCCN)ccc21.Cl.Cl.[Br-] [Compound 5, (E)-1,3-bis(3-ammoniopropyl)-2-((1-pentyl-1,2,3,4-tetrahydroquinoxalin-6-yl)diazenyl)-1H-imidazol-3-ium bromide dichloride] | 2.9% | 3.14% | 582 nm |
| C=CCN1CCN(CC=C)c2cc(/N=N/c3n(CCCCN)cc[n+]3CCCCN)ccc21 [Compound 7] | 0.8% | 4.79% | 580 nm |
| CCN1CCN(CC)c2cc(/N=N/c3n(CCCN)cc[n+]3CCCN)ccc21.Cl.Cl.[Br-] [Compound 1, (E)-1,3-bis(3-ammoniopropyl)-2-((1,4-diethyl-1,2,3,4-tetrahydroquinoxalin-6-yl)diazenyl)-1H-imidazol-3-ium bromide dichloride] | 2.0% | 2.05% | 587 nm |
| CCN1CCN(CC)c2cc(/N=N/c3n(CCCCN)cc[n+]3CCCCN)ccc21 [Compound 9] | 1.85% | 3.37% | 587 nm |
| CCN1CCN(CC)c2cc(/N=N/c3n(CCC[N+](C)(C)C)cc[n+]3CCC[N+](C)(C)C)ccc21 [Compound 6] | 10.86% | 3.47% | 592 nm |
| Cn1cc[n+](C)c1/N=N/c1cc2c3c(c1)OCCN3CCO2 [Compound 8, (E)-1,3-dimethyl-2-((2,3,4,5-tetrahydro-1,6-dioxa-3a-azaphenalen-8-yl)diazenyl)-1H-imidazol-3-ium methyl sulfate] | 1.28% | 1.27% | 553 nm |
